We go through 4 compounds from patent US20090280112A1 (The Regents of the University of California, priority 2008, published 2009).

The test system of data set [1] is LAPC-4 prostate cancer cells. As to the kind of experiment: LAPC-4 prostate cancer cell growth (CyQuant or BCA cell proliferation assay). The format is cell-based, human. The conditions noted are these: for block of the effect of 1 nM DHT to stimulate proliferation: much smaller effects on non-androgen mediated growth. The protocol: LAPC-4 prostate cancer cells were maintained at 37° C., 5% CO2 in phenol-free RPMI+10% FCS RPMI. Steroid free medium consisted of phenol-free RPMI supplemented with 10% dextran-coated, charcoal-treated serum (10% CDSS RPMI). LAPC-4 cells were incubated in this steroid-free 10% CDSS RPMI for 3 days prior to plating in 96 well plates (5×10^3 cells/well). […] The medium with androgens and inhibitors was refreshed on day 3. The plates were harvested on day 7 by inverting the microplate onto paper towels with gentle blotting to remove growth medium without disrupting adherent cells and freezing them at −80° C. for at least 30 minutes. LAPC-4 prostate cancer cell growth was determined using either the CyQuant cell proliferation assay (Molecular Probes, Eugene, Oreg.) or by the BCA assay (Pierce, Rockford, Ill.). Cell proliferation was calculated as the percent of content versus control cells at day 0.
Each value shown is the mean+SD for triplicate determinations. In FIGS. 1a and 2b, cell proliferation was measured by BCA, and in FIG. 1c by the CyQuant method. In all future studies, the CyQuant method was employed to measure proliferation.

For the next data set, the system named is IGF-1 receptor. As to the kind of experiment: IGF-1 receptor content in LAPC-4 cells (immunoprecipitation, western blot). The format is cell-based, human. The protocol:
At the end of the incubation period, cells were washed twice with PBS and solubilized with lysis buffer (50 mM HEPES pH 7.6, 150 mM NaCl, 0.1% Triton X-100, 1 mM PMSF, 2 mM Na3VO4) for 1 hour at 4° C. […] The immunoprecipitated samples were run on SDS-PAGE, under reducing condition. Following transfer to nitrocellulose membrane, levels of IGF-1 receptor were assessed by western blot. Following an overnight incubation at 4° C., the membranes were washed 3 times with TBST and then incubated with HRP-conjugated anti-rabbit IgG diluted 1:50,000 in the same blocking buffer for 90 minutes at room temperature. After washing, blots were incubated with Super Signal (Pierce Chemicals, Rockford, Ill.), and exposed to film.
In general terms: Immunoblotting shows a protein as a band on a membrane.

The test system of another data set is insulin receptor (IR). To be noted: FIG. 5c. Here is the method:
Level of insulin receptor was determined in 15 μg of total protein run on SDS-PAGE under reducing conditions, transferred to nitrocellulose membrane, and analyzed by probing with an anti-insulin receptor antibody CT-3, diluted 1:1000 in 1% milk, 1% BSA in TBST at 4° C. overnight. The secondary anti-mouse IgG, diluted 1:2000 in the same blocking buffer, was applied for 90 minutes at room temperature. Blots were incubated with SuperSignal, and exposed to film.

For another data set, the system named is IGF-1 receptor mRNA. As to the kind of experiment: IGF-1 receptor gene expression by quantitative PCR in LAPC-4 cells. The format is cell-based, human. To be noted: FIG. 6a. The protocol:
A large master mix of the above-mentioned components (minus the primers, probe and cDNA) was made for each experiment and aliquoted into individual tubes, one for each cDNA sample. cDNA was then added to the aliquoted master mix. The master mix with cDNA was aliquoted into a 384-well plate, with nine wells used for each cDNA sample. The primers and probes were mixed together and added to the master mix and cDNA in the 384-well plate. PCR was conducted on the ABI 7900HT (Applied Biosystems, CA) using the following cycle parameters: 1 cycle of 95° C. for 10 minutes, 40 cycles of 95° C. for 15 seconds, 60° C. for 1 minute. Analysis was carried out using the SDS software (version 2.3) supplied with the ABI 7900HT. The Ct values for each set of three reactions were averaged for all subsequent calculations. PCR primer and TaqMan probe sequences were either synthesized by Integrated DNA Technologies (Coralville, Iowa) or purchased from Applied Biosystems (Foster City, Calif.).

Another data set deals with LAPC-4 cells. The experiment in a line: LAPC-4 growth in soft agar (anchorage independent growth), CyQuant. The format is cell-based, human. The conditions noted are these: 1 nM DHT, 6 days, FIG. 3b.
Data set [2] has as its system patients with both androgen-dependent and androgen-independent prostate cancer. The conditions noted are these: Ryan et al. (2008), cited from earlier work.

In the case of `COc1cc([C@@H]2c3cc4c(cc3[C@H](O)[C@H]3COC(=O)[C@@H]23)OCO4)cc(OC)c1OC` [PPP, picropodophyllin], the “block of the effect of 1 nM DHT to stimulate proliferation” value in data set [1] is listed as “completely blocked”.

`Nc1ncnc2c1c(-c1cccc(OCc3ccccc3)c1)cn2C1CC(CN2CCC2)C1` (centres unmarked) [NVP-AEW541]: the “block of the effect of 1 nM DHT to stimulate proliferation” value in data set [1] is “completely blocked”.

On to `C[C@]12CCC(=O)C[C@@H]1CC[C@@H]1[C@@H]2CC[C@]2(C)[C@@H](O)CC[C@@H]12` [DHT, dihydrotestosterone], for which, in data set [1] (DHT at 10 nM, 7 days, 3 separate experiments, mean+SEM), the “affect to stimulate growth above control” value is reported as 83+8%. Besides, the “concentration at which a major effect on proliferation was observed” value in data set [1] (FIG. 1b) is given as 0.1 nM. Besides, the “concentration at which a significant effect on IGF-1 receptor content was observed” value in the data set with IGF-1 receptor (FIG. 5b) was determined as 0.1 nM. In the data set on IGF-1 receptor (western blot, FIG. 5a), the “effect on content of the IGF-1 receptor” value is “markedly increased”. Besides, in the data set with insulin receptor (IR), the “change in content of insulin receptor (IR)” value is listed as “no change”. The “concentration that maximally increases IGF-1 receptor gene expression” value in the data set on IGF-1 receptor mRNA is on record as 0.1 nM.

Take `C[C@H](Cc1ccc(O)c(O)c1)[C@@H](C)Cc1ccc(O)c(O)c1` [NDGA, Meso-nordihydroguaiaretic acid]: the IC50 turned out to be 5 µM in data set [1] (Homo sapiens, LAPC4, 5 separate experiments, mean+SEM, read-out: half-maximal effect to inhibit androgen-stimulated growth) and 11 µM with IGF-1 receptor (read-out: effects to inhibit DHT-induced IGF-1 receptor content, 3 separate experiments, mean+SEM, FIG. 5e). Also, the “inhibition of the effect of DHT on growth in soft agar” value with LAPC-4 cells is “inhibited anchorage independent growth”. The “inhibition of the effect of DHT to increase expression of IGF-1 receptor” value in the data set on IGF-1 receptor mRNA (NDGA at 10 μM) is recorded as “completely inhibit”. For the same compound, in data set [2], the clinical safety entry is reported as “reasonable safety”. Moreover, in data set [2] (patients with non-castrate levels of testosterone and a rising PSA), the “effect on PSA” value is given as “modest declines in PSA”.
